Reference: ChEMBL document CHEMBL1134025, “Thiosugars. Part 9: synthesis and biological evaluation of some 4'-thio-L-arabino nucleoside analogues” (2001)
Values after ≈ are worked out from the molar mass of the structure shown.

Tested on: Vaccinia virus
Assay: Minimum inhibitory concentration required to reduce Vaccinia virus induced cytopathogenicity by 50%
Format: functional
Settings: Orthopoxvirus vaccinia

SMILES | MIC [µg/mL]
O=c1ccn([C@H]2S[C@@H](CO)[C@H](O)[C@H]2O)c(=O)[nH]1 | 400 (≈ 1540 µM)
O=c1ccn([C@@H]2S[C@@H](CO)[C@H](O)[C@H]2O)c(=O)[nH]1 | 400 (≈ 1540 µM)
Nc1ncnc2c1ncn2[C@@H]1S[C@@H](CO)[C@H](O)[C@H]1O | 400 (≈ 1410 µM)
Nc1ncnc2c1ncn2[C@H]1S[C@@H](CO)[C@H](O)[C@H]1O | 400 (≈ 1410 µM)
Nc1ccn(C2S[C@@H](CO)[C@H](O)[C@H]2O)c(=O)n1 (some centres not stated) | 400 (≈ 1540 µM)
Cc1cn([C@H]2S[C@@H](CO)[C@H](O)[C@H]2O)c(=O)[nH]c1=O | 400 (≈ 1460 µM)
Cc1cn([C@@H]2S[C@@H](CO)[C@H](O)[C@H]2O)c(=O)[nH]c1=O | 400 (≈ 1460 µM)
